Results on ten compounds are retold here after ChEMBL document CHEMBL1201862, “PubChem BioAssay data set” (2004).

Test systems include SK-MEL-28; MDA-MB-231; ACHN; 786-0; HL-60; DU-145; UACC-257; MDA-N; NCI-H522; IGROV-1; OVCAR-8; EKVX; SF-539; UO-31; T47D; NCI-H23; CCRF-CEM; HT-29; SF-268; NCI-H226.
What all share (experiment): NCI anticancer screen, dose series, 48 h

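Values below derive from 48-hour exposures of cells grown in 96-well plates, with endpoints linearly interpolated between the two concentrations bracketing the appropriate inhibition level. GI50: concentration for 50% inhibition of growth.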 Activity calls are given as the source filed them. Rule as the data show it: active = GI50 up to about 1.1 µM and inactive = higher.

In the case of `C1=N\CCNCC/N=C\c2ccc(cc2)OCc2cccc(n2)COc2ccc/1cc2`, the GI50 in the experiment on SK-MEL-28 is > 100 µM (inactive); in the experiment with MDA-MB-231, 30.7 µM (inactive); with ACHN, 29.7 µM (inactive); with 786-0, 40.2 µM (inactive); in the experiment on HL-60, > 100 µM (inactive); in the experiment with DU-145, > 100 µM (inactive). The GI50 with UACC-257 is > 100 µM (inactive); in the experiment on MDA-N, > 100 µM (inactive); with NCI-H522 it was 26.9 µM (inactive); with IGROV-1 it was 66.7 µM (inactive); with OVCAR-8 it was 39.5 µM (inactive); with EKVX, > 100 µM (inactive). In addition, the GI50 in the experiment on SF-539 was 47.1 µM (inactive); in the experiment with UO-31, > 100 µM (inactive); in the experiment on T47D it was > 100 µM (inactive); in the experiment on NCI-H23, 66.7 µM (inactive); in the experiment with CCRF-CEM, > 100 µM (inactive); in the experiment on HT-29 it was > 100 µM (inactive). Also, the GI50 in the experiment with SF-268 was 22.2 µM (inactive); in the experiment with NCI-H226, > 100 µM (inactive).
For `O=C(/C=C1\Nc2ccccc2N=C1NC12CC3CC(CC(C3)C1)C2)c1ccc(Br)cc1`, the GI50 in the experiment on SK-MEL-28, in the experiment on MDA-MB-231, in the experiment with ACHN, in the experiment on 786-0, in the experiment on HL-60 and with DU-145 was > 10 µM (inactive) throughout. Also, the GI50 in the experiment on UACC-257, with MDA-N, with NCI-H522, in the experiment on IGROV-1, in the experiment on OVCAR-8 and in the experiment with EKVX was > 10 µM (inactive) throughout. Also, the GI50 in the experiment on SF-539, in the experiment with UO-31, with T47D, with NCI-H23, in the experiment on CCRF-CEM and with HT-29 was > 10 µM (inactive) throughout. For the same compound, the GI50 in the experiment on SF-268 and with NCI-H226 was > 10 µM (inactive) in each case.
Take `COc1ccc(Cn2c(=O)c(OS(=O)(=O)C(F)(F)F)c(C)c3cc4ccccc4cc32)cc1`: the GI50 in the experiment on SK-MEL-28, in the experiment on MDA-MB-231, in the experiment on ACHN, with 786-0, with HL-60 and in the experiment with DU-145 was > 100 µM (inactive) throughout. The GI50 in the experiment on UACC-257 was 36 µM (inactive); with MDA-N it was > 100 µM (inactive); in the experiment with NCI-H522, > 100 µM (inactive); with IGROV-1, > 100 µM (inactive); in the experiment with OVCAR-8 it was > 100 µM (inactive); with EKVX, > 100 µM (inactive). Moreover, the GI50 in the experiment with SF-539, in the experiment with UO-31, in the experiment with T47D, with NCI-H23, with CCRF-CEM and in the experiment with HT-29 was > 100 µM (inactive) each time. Moreover, the GI50 with SF-268 and with NCI-H226 was > 100 µM (inactive) throughout.
As to `c1ccc(CSc2ccccc2CN2CCN(Cc3ccccc3SCc3ccccc3)CCN(Cc3ccccc3SCc3ccccc3)CC2)cc1`, the GI50 with SK-MEL-28 is 1.88 µM (inactive); in the experiment with MDA-MB-231, 1.51 µM (inactive); in the experiment with ACHN it was 2.58 µM (inactive); with 786-0, 1.61 µM (inactive); in the experiment on HL-60, 1.5 µM (inactive); with DU-145, 2.94 µM (inactive). Further, the GI50 in the experiment on UACC-257 is 1.39 µM (inactive); with MDA-N it was 1.52 µM (inactive); with NCI-H522, 0.395 µM (active); in the experiment on OVCAR-8 it was 1.22 µM (inactive); with EKVX it was 1.2 µM (inactive); with SF-539, 1.86 µM (inactive). Further, the GI50 is 2.59 µM (inactive) with UO-31; 1.43 µM (inactive) in the experiment with T47D; 0.951 µM (active) in the experiment with NCI-H23; 2.35 µM (inactive) in the experiment on CCRF-CEM; 0.499 µM (active) in the experiment on HT-29; 2.94 µM (inactive) in the experiment with SF-268. Also, the GI50 in the experiment on NCI-H226 is 1.81 µM (inactive).
Consider `COc1ccc(C(=O)/C=C/c2cc(O)c(O)cc2F)c(OC)c1`, for which the GI50 was 11.8 µM (inactive) with SK-MEL-28; 13.6 µM (inactive) with MDA-MB-231; 7.08 µM (inactive) with ACHN; 5.45 µM (inactive) in the experiment with 786-0; 1.15 µM (inactive) in the experiment with HL-60; 6.19 µM (inactive) with DU-145. For the same compound, the GI50 in the experiment on UACC-257 was 10.5 µM (inactive); in the experiment with MDA-N, 2.54 µM (inactive); with NCI-H522, 0.354 µM (active); in the experiment with IGROV-1, 7.96 µM (inactive); with OVCAR-8, 14.5 µM (inactive); with EKVX, 14.4 µM (inactive). Moreover, the GI50 with SF-539 is 6.04 µM (inactive); in the experiment with UO-31, 7.67 µM (inactive); in the experiment on T47D, 4.05 µM (inactive); with NCI-H23, 5.3 µM (inactive); in the experiment with CCRF-CEM it was 0.783 µM (active); in the experiment with HT-29 it was 7.48 µM (inactive). Besides, the GI50 in the experiment on SF-268 was 7.28 µM (inactive); in the experiment with NCI-H226, 13.2 µM (inactive).
For the compound `COc1ccc(C2=Nn3c(C)nnc3S/C2=C\c2ccc(-c3ccc([N+](=O)[O-])cc3)o2)cc1`, the GI50 in the experiment on MDA-MB-231 is 19.9 µM (inactive); with ACHN it was 11.7 µM (inactive); in the experiment on 786-0, 4.94 µM (inactive); in the experiment with HL-60, 5.12 µM (inactive); in the experiment with DU-145 it was 12.2 µM (inactive); in the experiment with UACC-257, 17.3 µM (inactive). For the same compound, the GI50 in the experiment on MDA-N was 6.62 µM (inactive); in the experiment with NCI-H522, 6.34 µM (inactive); with IGROV-1, 20.8 µM (inactive); with OVCAR-8, 3.62 µM (inactive); in the experiment with EKVX it was 27.9 µM (inactive); with SF-539, 5.51 µM (inactive). The GI50 in the experiment on UO-31 is 15.1 µM (inactive); in the experiment on T47D, 4.88 µM (inactive); in the experiment with NCI-H23 it was 13.9 µM (inactive); with CCRF-CEM, 3.92 µM (inactive); with HT-29, 14.2 µM (inactive); with SF-268, 12.3 µM (inactive). In the experiment with NCI-H226, the GI50 is 27.2 µM (inactive).
Turning to `O=S(=O)(c1ccccc1)[C@H]1[C@@H]2O[C@@H]2C[C@@H]1O`, the GI50 with SK-MEL-28, in the experiment on MDA-MB-231, in the experiment with ACHN, with 786-0, with HL-60 and in the experiment with DU-145 was > 100 µM (inactive) throughout. Further, the GI50 with UACC-257, in the experiment on MDA-N, with NCI-H522, in the experiment on IGROV-1, in the experiment with OVCAR-8 and with EKVX was > 100 µM (inactive) in each case. The GI50 with SF-539, with UO-31, in the experiment with T47D, with NCI-H23, with CCRF-CEM and in the experiment on HT-29 was > 100 µM (inactive) throughout. In addition, the GI50 with SF-268 and with NCI-H226 was > 100 µM (inactive) each time.
Regarding `CN(C)CC1CCCC(CN2CCCCC2)C1=O` (stereo not drawn), the GI50 with SK-MEL-28 is 13.9 µM (inactive); with MDA-MB-231, 15.1 µM (inactive); in the experiment with ACHN, 6.58 µM (inactive); with 786-0, 2.74 µM (inactive); in the experiment with HL-60, 2.18 µM (inactive); in the experiment on DU-145, 18.2 µM (inactive). Moreover, the GI50 is 14.6 µM (inactive) in the experiment on UACC-257; 14.4 µM (inactive) with MDA-N; 0.0764 µM (active) in the experiment on NCI-H522; 17 µM (inactive) in the experiment on IGROV-1; 14.2 µM (inactive) in the experiment with OVCAR-8; 12.5 µM (inactive) in the experiment with EKVX. Moreover, the GI50 was 17.5 µM (inactive) in the experiment on SF-539; 17.2 µM (inactive) in the experiment on UO-31; 2.19 µM (inactive) in the experiment with T47D; 17.9 µM (inactive) with NCI-H23; 0.762 µM (active) in the experiment on CCRF-CEM; 5.4 µM (inactive) in the experiment with HT-29. The GI50 is 19.5 µM (inactive) with SF-268 and 20.6 µM (inactive) in the experiment with NCI-H226.
In the case of `O=C1Oc2ccccc2C(=O)/C1=C/N1C(=O)CNC1=S`, the GI50 in the experiment on SK-MEL-28 was > 100 µM (inactive); in the experiment on MDA-MB-231, > 100 µM (inactive); in the experiment on ACHN it was 56.8 µM (inactive); in the experiment on 786-0, > 100 µM (inactive); with HL-60 it was 44 µM (inactive); in the experiment with DU-145, > 100 µM (inactive). Also, the GI50 in the experiment with UACC-257, in the experiment on MDA-N, in the experiment on NCI-H522, in the experiment on IGROV-1, in the experiment on OVCAR-8 and with EKVX was > 100 µM (inactive) in each case. The GI50 in the experiment on SF-539 was > 100 µM (inactive); with UO-31 it was 23 µM (inactive); with T47D it was > 100 µM (inactive); in the experiment with NCI-H23 it was > 100 µM (inactive); with CCRF-CEM, 80.2 µM (inactive); in the experiment on HT-29, > 100 µM (inactive). Further, the GI50 in the experiment on SF-268 and in the experiment on NCI-H226 was > 100 µM (inactive) each time.
As to `COc1cc2c(c(OC)c1)C(C)=NC(C)C2` (stereo not drawn), the GI50 in the experiment with SK-MEL-28, in the experiment with MDA-MB-231, in the experiment with ACHN, in the experiment on 786-0, in the experiment on HL-60 and in the experiment on DU-145 was > 100 µM (inactive) throughout. Also, the GI50 in the experiment on UACC-257 is > 100 µM (inactive); in the experiment on MDA-N, > 100 µM (inactive); with NCI-H522 it was 76.7 µM (inactive); in the experiment on IGROV-1 it was > 100 µM (inactive); with OVCAR-8, > 100 µM (inactive); in the experiment with EKVX, > 100 µM (inactive). For the same compound, the GI50 in the experiment with SF-539, in the experiment on UO-31, in the experiment with T47D, in the experiment on NCI-H23, with CCRF-CEM and in the experiment with HT-29 was > 100 µM (inactive) each time. Moreover, the GI50 in the experiment with SF-268 and in the experiment with NCI-H226 was > 100 µM (inactive) each time.
